Results on 24 compounds are retold here after patent US20230031406A1, “COMPOUNDS AND COMPOSITIONS FOR TREATING CONDITIONS ASSOCIATED WITH NLRP ACTIVITY” (Novartis AG, priority 2018, published 2023).

SMILES strings stand for the structures. Like-named read-outs stand apart in the source and are kept apart here.

This test has as its system PMA-differentiated THP-1 cells. The experiment in a line: IL-1β production in PMA-differentiated THP-1 cells stimulated with gramicidin (hTHP-1 assay containing 2% fetal bovine serum; Procedures 1 and 2). In kind it is cell-based, human. The note with it: 2% fetal bovine serum. In outline:
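PMA-primed (20 ng/ml, 16-18 h) THP-1 cells in RPMI with 2% FBS, 50,000 cells/well, were preincubated 1 h with compound (0.0017-100 μM final, 0.37% DMSO), then stimulated 2 h with 5 μM gramicidin. Supernatant IL-1β measured by HTRF.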

Where [1] appears, read: Table B1, class symbols, read-out: Average IC50 of compounds in hTHP-1 assay: hTHP-1 IC50.
Setting [2] is: Homo sapiens, THP-1, Table B3, hTHP-1 assay, class symbols, read-out: IC50.
Setting [3] is: Homo sapiens, THP-1, Table B1, class symbols, read-out: Average IC50 of compounds in hTHP-1 assay: hTHP-1 IC50.
Setting [4] is: Homo sapiens, THP-1, Table B2, class symbols, read-out: hTHP-1 IC50.
Where [5] appears, read: Table B3, hTHP-1 assay, class symbols, read-out: IC50.
Setting [6] is: Table B2, class symbols, read-out: hTHP-1 IC50.

As for `CC(C)(O)c1ncc(S(N)(=O)=NC(=O)Nc2c3c(nc4c2CCC4F)CCC3)s1` (stereo not shown) [Compound 183, N′-((3-fluoro-1,2,3,5,6,7-hexahydrodicyclopenta[b,e]pyridin-8-yl)carbamoyl)-2-(2-hydroxypropan-2-yl)thiazole-5-sulfonimidamide], the IC50 under setting [1] lay in the range of 5000 to 30000 nM.
Regarding `CC(C)(O)c1ncc(S(N)(=O)=NC(=O)Nc2c3c(nc4c2CCC4F)CCC3)s1` (single isomer, unassigned) [Compound 183d, (S,R) or (S,S)-N′-((3-fluoro-1,2,3,5,6,7-hexahydrodicyclo-penta[b,e]pyridin-8-yl)carbamoyl)-2-(2-hydroxypropan-2-yl)thiazole-5-sulfonimidamide], the half-inhibitory concentration (IC50) (Table B1, numeric bounds, read-out: Average IC50 of compounds in hTHP-1 assay: hTHP-1 IC50) was more than 30000 nM.
Consider `C[C@@H]1CCc2c1nc1c(c2NC(=O)N=[S@@](N)(=O)c2ccn(CF)n2)CCC1` [Example 573, (R)-1-(fluoromethyl)-N′—(((R)-3-methyl-1,2,3,5,6,7-hexahydrodicyclopenta[b,e]pyridin-8-yl)carbamoyl)-1H-pyrazole-3-sulfonimidamide], for which the IC50 under setting [2] was 1000 to 5000 nM.
On to `Cc1c(C2CC2)nc2c(c1NC(=O)N=S(N)(=O)c1cnc(C(C)(C)O)s1)CCC2` (stereo not shown) [Compound 124, N′-((2-cyclopropyl-3-methyl-6,7-dihydro-5H-cyclopenta[b]pyridin-4-yl)carbamoyl)-2-(2-hydroxypropan-2-yl)thiazole-5-sulfonimidamide], for which the IC50 under setting [3] fell in the range of 200 to 1000 nM.
`CC(C)(O)c1sc(S(N)(=O)=NC(=O)Nc2c3c(nc4c2CCC42CC2)CCC3)cc1F` (stereo not shown) [Compound 614, 4-Fluoro-5-(2-hydroxypropan-2-yl)-N′-((1′,5′,6′,7′-tetrahydro-2′H-spiro[cyclopropane-1,3′-dicyclopenta[b,e]pyridin]-8′-yl)carbamoyl)thiophene-2-sulfonimidamide]: the IC50 under setting [4] was 200 to 1000 nM.
In the case of `Cc1c(C(F)(F)F)nc2c(c1NC(=O)N=S(N)(=O)c1cnn3c1OCCC3)CCC2` (single isomer, unassigned) [Example 657, (R) or (S)-N′-((3-((3-2-(trifluoromethyl)-6,7-dihydro-5H-cyclopenta[b]pyridin-4-yl)carbamoyl)-6,7-dihydro-5H-pyrazolo[5,1-b][1,3]oxazine-3-sulfonimidamide], the IC50 under setting [2] is 1000 to 5000 nM.
As to `CCn1cc(F)c(S(N)(=O)=NC(=O)Nc2c3c(nc(C(F)(F)F)c2-c2ccccc2)CCC3)n1` (single isomer, unassigned) [Example 767, (R) or (S)-1-ethyl-4-fluoro-N′-((3-phenyl-2-(trifluoromethyl)-6,7-dihydro-5H-cyclopenta[b]pyridin-4-yl)carbamoyl)-1H-pyrazole-3-sulfonimidamide], the IC50 (Table B4, class symbols, read-out: hTHP-1 IC50) fell in the range of 8 to 40 nM.
`NS(=O)(=NC(=O)Nc1c2c(nc3c1CCC3)CCC2)c1nn(C(F)F)cc1F` (single isomer, unassigned) [Example 759, (R) or (S)-1-(difluoromethyl)-4-fluoro-N′-((1,2,3,5,6,7-hexahydrodicyclopenta[b,e]pyridin-8-yl)carbamoyl)-1H-pyrazole-3-sulfonimidamide]: the IC50 (Homo sapiens, THP-1, Table B4, class symbols, read-out: hTHP-1 IC50) was 200 to 1000 nM.
For `CCn1cc(F)c(S(N)(=O)=NC(=O)Nc2c3c(nc4c2CCC42CC2)CCC3)n1` (single isomer, unassigned) [Example 672, (S) or (R)-1-ethyl-4-fluoro-N′-((1′,5′,6′,7′-tetrahydro-2′H-spiro[cyclopropane-1,3'-dicyclopenta[b,e]pyridin]-8′-yl)carbamoyl)-1H-pyrazole-3-sulfonimidamide], under setting [5], the IC50 was 1000 to 5000 nM.
For the compound `Cc1c(C(F)(F)F)nc2c(c1NC(=O)N=S(N)(=O)c1cnc(C(C)(C)O)s1)CCC2` (stereo not shown) [Compound 661, 2-(2-Hydroxypropan-2-yl)-N′-((3-methyl-2-(trifluoromethyl)-6,7-dihydro-5H-cyclopenta[b]pyridin-4-yl)carbamoyl)thiazole-5-sulfonimidamide], the IC50 under setting [4] was in the range of 1000 to 5000 nM.
For `CCC1CCc2c1nc1c(c2NC(=O)N=S(N)(=O)c2ccn(C(F)F)n2)CCC1` (single isomer, unassigned) [Compound 668b, (R, R) or (R, S) or (S, R) or (S, S)-1-(Difluoromethyl)-N′-((3-ethyl-1,2,3,5,6,7-hexahydrodicyclopenta [b,e]pyridin-8-yl)carbamoyl)-1H-pyrazole-3-sulfonimidamide], the half-maximal inhibitory concentration (IC50) under setting [4] lay within 5000 to 30000 nM.
For `CC1(C)CCc2c1nc1c(c2NC(=O)N=S(N)(=O)c2cc([C@@](C)(O)CO)cs2)CCC1` (stereo partly drawn) [Example 624, 4-((R)-1,2-dihydroxypropan-2-yl)-N′-((3,3-dimethyl-1,2,3,5,6,7-hexahydrodicyclopenta[b,e]pyridin-8-yl)carbamoyl)thiophene-2-sulfonimidamide], under setting [2], the concentration for half-maximal inhibition (IC50) fell in the range of 200 to 1000 nM.
As to `CC(C)(CO)c1ncc(S(N)(=O)=NC(=O)Nc2c3c(nc4c2CCC4(C)C)CCC3)s1` (stereo not shown) [Example 605, N′-((3,3-dimethyl-1,2,3,5,6,7-hexahydrodicyclopenta[b,e]pyridin-8-yl)carbamoyl)-2-(1-hydroxy-2-methylpropan-2-yl)thiazole-5-sulfonimidamide], the IC50 under setting [2] was 200 to 1000 nM.
`CC1(C)CCc2c1nc1c(c2NC(=O)N=S(N)(=O)c2cnc(C(C)(O)CO)s2)CCC1` (single isomer, unassigned) [Compound 201a, (R, R) or (S, R) or (R, S) or (S, S)-2-(1,2-Dihydroxypropan-2-yl)-N′-((3,3-dimethyl-1,2,3,5,6,7-hexahydrodicyclopenta [b,e]pyridin-8-yl)carbamoyl) thiazole-5-sulfonimidamide]: the IC50 under setting [3] lay in the range of 40 to 200 nM and the IC50 under setting [6] fell in the range of 8 to 40 nM.
For `Cc1c(C(F)(F)F)nc2c(c1NC(=O)N=S(N)(=O)c1nn(C(F)F)cc1F)CCC2` (single isomer, unassigned) [Example 563], the concentration for half-maximal inhibition (IC50) under setting [5] was 5000 to 30000 nM.
Consider `Cc1c(C2CC2)nc2c(c1NC(=O)N=S(N)(=O)c1sc(C(C)(C)O)cc1F)CCC2` (stereo not shown) [Compound 174, N′-((2-cyclopropyl-3-methyl-6,7-dihydro-5H-cyclopenta[b]pyridin-4-yl)carbamoyl)-3-fluoro-5-(2-hydroxypropan-2-yl)thiophene-2-sulfonimidamide], for which the half-inhibitory concentration (IC50) under setting [3] was 200 to 1000 nM.
Consider `CC(C)c1c(C2CC2)nc2c(c1NC(=O)N=S(N)(=O)c1cc(C(C)(C)O)cs1)CCC2` (stereo not shown) [Compound 667, N′-((2-cyclopropyl-3-isopropyl-6,7-dihydro-5H-cyclopenta[b]pyridin-4-yl)carbamoyl)-4-(2-hydroxypropan-2-yl)thiophene-2-sulfonimidamide], for which the IC50 under setting [4] fell in the range of 200 to 1000 nM.
Turning to `CCn1cc(Cl)c(S(N)(=O)=NC(=O)Nc2c(C)c(C(F)(F)F)nc3c2CCC3)n1` (single isomer, unassigned) [Compound 729a, (S) or (R)-4-Chloro-1-ethyl-N′-((3-methyl-2-(trifluoromethyl)-6,7-dihydro-5H-cyclopenta[b]pyridin-4-yl)carbamoyl)-1H-pyrazole-3-sulfonimidamide], the IC50 under setting [6] was 5000 to 30000 nM.
In the case of `CC(=O)c1csc(S(N)(=O)=NC(=O)Nc2c3c(nc4c2CC[C@H]4C)CCC3)c1` (single isomer, unassigned) [Example 666, (S) or (R)-4-acetyl-N′-(((R)-3-methyl-1,2,3,5,6,7-hexahydrodicyclopenta[b,e]pyridin-8-yl)carbamoyl)thiophene-2-sulfonimidamide], the half-maximal inhibitory concentration (IC50) under setting [5] fell in the range of 5000 to 30000 nM.
For the compound `Cc1c(C2(C)CC2)nc2c(c1NC(=O)N=S(N)(=O)c1cnc(C(C)(C)O)s1)CCC2` (stereo not shown) [Compound 641, 2-(2-Hydroxypropan-2-yl)-N′-((3-methyl-2-(1-methylcyclopropyl)-6,7-dihydro-5H-cyclopenta[b]pyridin-4-yl)carbamoyl)thiazole-5-sulfonimidamide], the IC50 under setting [4] lay within 5000 to 30000 nM.
For `CC1CCc2c1nc1c(c2NC(=O)N=S(N)(=O)c2sc(C(C)(C)O)nc2CO)CCC1` (single isomer, unassigned) [Compound 168bb, (R,R) or (R,S)-4-(hydroxymethyl)-2-(2-hydroxypropan-2-yl)-N′-((3-methyl-1,2,3,5,6,7-hexahydrodicyclo-penta[b,c]pyridin-8-yl)carbamoyl)thiazole-5-sulfonimidamide], the half-maximal inhibitory concentration (IC50) under setting [1] was in the range of 1000 to 5000 nM.
As to `CCn1cc(F)c(S(N)(=O)=NC(=O)Nc2c(C)c(C3CC3)nc3c2CCC3)n1` (stereo not shown) [Example 637, N′-((2-cyclopropyl-3-methyl-6,7-dihydro-5H-cyclopenta[b]pyridin-4-yl)carbamoyl)-1-ethyl-4-fluoro-1H-pyrazole-3-sulfonimidamide], under setting [2], the 50% inhibitory concentration (IC50) is 200 to 1000 nM.
In the case of `CC(C)(O)c1nc(CO)c(S(N)(=O)=NC(=O)Nc2c3c(nc4c2CCC4(C)C)CCC3)s1` (single isomer, unassigned) [Compound 121a, (R) or (S)-N′-((3,3-dimethyl-1,2,3,5,6,7-hexahydro-dicyclopenta[b,e]pyridin-8-yl)carbamoyl)-4-(hydroxymethyl)-2-(2-hydroxypropan-2-yl)thiazole-5-sulfonimidamide], the IC50 under setting [1] lay within 40 to 200 nM.
Take `CC1(C)CCc2c1nc1c(c2NC(=O)N=S(N)(=O)c2sc(C(C)(O)CO)cc2F)CCC1` (single isomer, unassigned) [Compound 640b, (S, R) and (R, R) or (R, S) and (S, S)-5-(1,2-Dihydroxypropan-2-yl)-N′-((3,3-dimethyl-1,2,3,5,6,7-hexahydrodicyclopenta [b,e]pyridin-8-yl)carbamoyl)-3-fluorotliophene-2-sulfonimidamide]: the 50% inhibitory concentration (IC50) under setting [6] is 40 to 200 nM.
